In patent US10538487B2, “Sulfonylureas and related compounds and use of same” (priority 2015, dated 2020):
Read-outs that look alike come from different tables or passages of the source.

Assay: Single dose pharmacokinetic study in mice (iv 4 mg/Kg, po 20 mg/Kg), plasma concentration post-dosing
Format: in vivo, mouse
Conditions: male, C57BL/6, mouse, plasma, mouse; for concentration at 5 min: 5 min post dosing; for concentration at 0.25 h: 0.250 h post dosing; for concentration at 0.5 h: 0.500 h post dosing; for concentration at 1 h: 1.00 h post dosing; for concentration at 2 h: 2.00 h post dosing; for concentration at 4 h: 4.00 h post dosing; for concentration at 8 h: 8.00 h post dosing; for concentration at 24 h: 24.0 h post dosing
Procedure: This is advantageous leading to comparatively lower doses or less frequent administration. The procedure followed was: Male C57BL/6 mice were used at 7-9 weeks age with 3 animals per group. Mice were dosed with test compound using single intravenous bolus or oral gavage. Blood samples were taken via submandibular or saphenous vein for analysis of plasma concentrations of compound by LC-MS/MS at the following timepoints: IV (3 mice): 0.083, 0.25, 0.5, 1, 2, 4, 8 and 24 hours post dosing, PO (3 mice): 0.25, 0.5, 1, 2, 4, 8 and 24 hours post dosing. LC-MS/MS method for the quantitative determination of test compound in corresponding biological matrix was developed. […] The results are shown graphically in FIGS. 1A to 1C (MCC950) and FIGS. 2A to 2C (MCC7840).

CC(C)(O)c1coc(S(=O)(=O)NC(=O)Nc2c3c(cc4c2CCC4)CCC3)c1 [MCC_000950_016, N-((1,2,3,5,6,7-hexahydro-s-indacen-4-yl)carbamoyl)-4-(2-hydroxypropan-2-yl)furan-2-sulfonamide, reference compound]
concentration at 5 min (iv, 4 mg/kg, IV 4 mg/Kg, individual mice M1-M3, read-out: Plasma concentration, IV Time 0.0833 h): 20200 ng/mL | concentration at 5 min (iv, 4 mg/kg, IV 4 mg/Kg, mean of 3 mice, read-out: Plasma concentration, IV Time 0.0833 h, Mean IV): 18400 ng/mL | concentration at 0.25 h (iv, 4 mg/kg, IV 4 mg/Kg, individual mice M1-M3, read-out: Plasma concentration, IV Time 0.250 h): 16000 ng/mL | concentration at 0.25 h (iv, 4 mg/kg, IV 4 mg/Kg, mean of 3 mice, read-out: Plasma concentration, IV Time 0.250 h, Mean IV): 13000 ng/mL | concentration at 0.5 h (iv, 4 mg/kg, IV 4 mg/Kg, individual mice M1-M3, read-out: Plasma concentration, IV Time 0.500 h): 11700 ng/mL | concentration at 0.5 h (iv, 4 mg/kg, IV 4 mg/Kg, mean of 3 mice, read-out: Plasma concentration, IV Time 0.500 h, Mean IV): 10500 ng/mL | concentration at 1 h (iv, 4 mg/kg, IV 4 mg/Kg, individual mice M1-M3, read-out: Plasma concentration, IV Time 1.00 h): 9340 ng/mL | concentration at 1 h (iv, 4 mg/kg, IV 4 mg/Kg, mean of 3 mice, read-out: Plasma concentration, IV Time 1.00 h, Mean IV): 8430 ng/mL | concentration at 2 h (iv, 4 mg/kg, IV 4 mg/Kg, individual mice M1-M3, read-out: Plasma concentration, IV Time 2.00 h): 7410 ng/mL | concentration at 2 h (iv, 4 mg/kg, IV 4 mg/Kg, mean of 3 mice, read-out: Plasma concentration, IV Time 2.00 h, Mean IV): 6140 ng/mL | concentration at 4 h (iv, 4 mg/kg, IV 4 mg/Kg, individual mice M1-M3, read-out: Plasma concentration, IV Time 4.00 h): 3280 ng/mL | concentration at 4 h (iv, 4 mg/kg, IV 4 mg/Kg, mean of 3 mice, read-out: Plasma concentration, IV Time 4.00 h, Mean IV): 2600 ng/mL | concentration at 8 h (iv, 4 mg/kg, IV 4 mg/Kg, individual mice M1-M3, read-out: Plasma concentration, IV Time 8.00 h): 905 ng/mL | concentration at 8 h (iv, 4 mg/kg, IV 4 mg/Kg, mean of 3 mice, read-out: Plasma concentration, IV Time 8.00 h, Mean IV): 743 ng/mL | concentration at 24 h (iv, 4 mg/kg, IV 4 mg/Kg, individual mice M1-M3, read-out: Plasma concentration, IV Time 24.0 h): 3.29 ng/mL | concentration at 24 h (iv, 4 mg/kg, IV 4 mg/Kg, mean of 3 mice, read-out: Plasma concentration, IV Time 24.0 h, Mean IV): 2.65 ng/mL | AUC0-inf (iv, 4 mg/kg, IV 4 mg/Kg, individual mice M1-M3, read-out: AUC0-inf): 41900 ng·h/mL | AUC(0-t) (iv, 4 mg/kg, IV 4 mg/Kg, individual mice M1-M3, read-out: AUC0-last): 41900 ng·h/mL | C0 (iv, 4 mg/kg, IV 4 mg/Kg, individual mice M1-M3, read-out: C0): 22700 ng/mL | clearance (iv, 4 mg/kg, IV 4 mg/Kg, individual mice M1-M3, read-out: Cl): 1.59 mL/min/kg | MRT inf (iv, 4 mg/kg, IV 4 mg/Kg, individual mice M1-M3, read-out: MRT0-inf): 2.78 h | MRT last (iv, 4 mg/kg, IV 4 mg/Kg, individual mice M1-M3, read-out: MRT0-last): 2.77 h | half-life (iv, 4 mg/kg, IV 4 mg/Kg, individual mice M1-M3, read-out: T1/2 (converted)): 120 min | Vd (iv, 4 mg/kg, IV 4 mg/Kg, individual mice M1-M3, read-out: Vdss): 0.265 L/kg | AUC0-inf (iv, 4 mg/kg, IV 4 mg/Kg, mean of 3 mice, read-out: AUC0-inf, Mean IV): 35400 ng·h/mL | AUC(0-t) (iv, 4 mg/kg, IV 4 mg/Kg, mean of 3 mice, read-out: AUC0-last, Mean IV): 35400 ng·h/mL | clearance (iv, 4 mg/kg, IV 4 mg/Kg, mean of 3 mice, read-out: Cl, Mean IV): 1.92 mL/min/kg | MRT inf (iv, 4 mg/kg, IV 4 mg/Kg, mean of 3 mice, read-out: MRT0-inf, Mean IV): 2.67 h | MRT last (iv, 4 mg/kg, IV 4 mg/Kg, mean of 3 mice, read-out: MRT0-last, Mean IV): 2.67 h | half-life (iv, 4 mg/kg, IV 4 mg/Kg, mean of 3 mice, read-out: T1/2, Mean IV (converted)): 120 min | Vd (iv, 4 mg/kg, IV 4 mg/Kg, mean of 3 mice, read-out: Vdss, Mean IV): 0.306 L/kg | concentration at 0.25 h (po, 20 mg/kg, PO 20 mg/Kg, mean of 3 mice, read-out: Plasma concentration, PO Time 0.250 h, Mean PO): 33300 ng/mL | concentration at 0.5 h (po, 20 mg/kg, PO 20 mg/Kg, individual mice M4-M6, read-out: Plasma concentration, PO Time 0.500 h): 20400 ng/mL | concentration at 0.5 h (po, 20 mg/kg, PO 20 mg/Kg, mean of 3 mice, read-out: Plasma concentration, PO Time 0.500 h, Mean PO): 30100 ng/mL | concentration at 1 h (po, 20 mg/kg, PO 20 mg/Kg, individual mice M4-M6, read-out: Plasma concentration, PO Time 1.00 h): 19300 ng/mL | concentration at 1 h (po, 20 mg/kg, PO 20 mg/Kg, mean of 3 mice, read-out: Plasma concentration, PO Time 1.00 h, Mean PO): 30000 ng/mL | concentration at 2 h (po, 20 mg/kg, PO 20 mg/Kg, individual mice M4-M6, read-out: Plasma concentration, PO Time 2.00 h): 18500 ng/mL | concentration at 2 h (po, 20 mg/kg, PO 20 mg/Kg, mean of 3 mice, read-out: Plasma concentration, PO Time 2.00 h, Mean PO): 22400 ng/mL | concentration at 4 h (po, 20 mg/kg, PO 20 mg/Kg, individual mice M4-M6, read-out: Plasma concentration, PO Time 4.00 h): 10200 ng/mL | concentration at 4 h (po, 20 mg/kg, PO 20 mg/Kg, mean of 3 mice, read-out: Plasma concentration, PO Time 4.00 h, Mean PO): 11200 ng/mL | concentration at 8 h (po, 20 mg/kg, PO 20 mg/Kg, individual mice M4-M6, read-out: Plasma concentration, PO Time 8.00 h): 4330 ng/mL | concentration at 8 h (po, 20 mg/kg, PO 20 mg/Kg, mean of 3 mice, read-out: Plasma concentration, PO Time 8.00 h, Mean PO): 3790 ng/mL | concentration at 24 h (po, 20 mg/kg, PO 20 mg/Kg, mean of 3 mice, read-out: Plasma concentration, PO Time 24.0 h, Mean PO): 39.1 ng/mL | AUC0-inf (po, 20 mg/kg, PO 20 mg/Kg, individual mice M4-M6, read-out: AUC0-inf): 108000 ng·h/mL | AUC(0-t) (po, 20 mg/kg, PO 20 mg/Kg, individual mice M4-M6, read-out: AUC0-last): 108000 ng·h/mL | MRT inf (po, 20 mg/kg, PO 20 mg/Kg, individual mice M4-M6, read-out: MRT0-inf): 4.31 h | MRT last (po, 20 mg/kg, PO 20 mg/Kg, individual mice M4-M6, read-out: MRT0-last): 4.26 h | half-life (po, 20 mg/kg, PO 20 mg/Kg, individual mice M4-M6, read-out: T1/2 (converted)): 160 min | Tmax (po, 20 mg/kg, PO 20 mg/Kg, individual mice M4-M6, read-out: Tmax): 15 min
